Measured values as given in ChEMBL document CHEMBL4007454 (J Med Chem, 2017).

What was measured:
[1] = Intrinsic clearance in human hepatocytes assessed per million cells at 1 uM after 180 mins by LC-MS/MS analysis; format: ADME, cell-based, Hepatocyte; details: read-out: CLH
MDR1 (human) = test: Apparent permeability in pig LLC-PK1 cells expressing human MDR1; format: ADME, cell-based, Sus scrofa
[2] = Intrinsic clearance in rat hepatocytes assessed per million cells at 1 uM after 180 mins by LC-MS/MS analysis; format: ADME, cell-based, Hepatocyte; details: read-out: CLH
[3] = biological target: T1, Leucine-rich repeat serine/threonine-protein kinase 2 (Homo sapiens, UniProt Q5S007, G2019S); test: Inhibition LRRK2 G2019S mutant Ser935 phosphorylation in human SH-SY5Y cells after 90 mins by Western blot analysis; format: cell-based
[4] = Efflux ratio of permeability […] in pig LLC-PK1 cells expressing rat MDR1; format: ADME, cell-based, Sus scrofa
[5] = biological target: T1, Leucine-rich repeat serine/threonine-protein kinase 2; test: Inhibition of recombinant human GST-tagged LRRK2 (970 to 2527 residues) G2019S mutant expressed in baculovirus using fluorescein-ERM as substrate preincubated for 30 mins followed by substrate addition measured after 1 hr in presence of 5 mM ATP by TR-FRET assay
[6] = Efflux ratio of permeability […] in pig LLC-PK1 cells expressing human MDR1; format: ADME, cell-based, Sus scrofa
[7] = biological target: T1, Leucine-rich repeat serine/threonine-protein kinase 2; test: Inhibition of recombinant human GST-tagged LRRK2 (970 to 2527 residues) G2019S mutant expressed in baculovirus using fluorescein-ERM as substrate preincubated for 30 mins followed by substrate addition measured after 1 hr by TR-FRET assay

T1 sequence (Q5S007 whole entry G2019S): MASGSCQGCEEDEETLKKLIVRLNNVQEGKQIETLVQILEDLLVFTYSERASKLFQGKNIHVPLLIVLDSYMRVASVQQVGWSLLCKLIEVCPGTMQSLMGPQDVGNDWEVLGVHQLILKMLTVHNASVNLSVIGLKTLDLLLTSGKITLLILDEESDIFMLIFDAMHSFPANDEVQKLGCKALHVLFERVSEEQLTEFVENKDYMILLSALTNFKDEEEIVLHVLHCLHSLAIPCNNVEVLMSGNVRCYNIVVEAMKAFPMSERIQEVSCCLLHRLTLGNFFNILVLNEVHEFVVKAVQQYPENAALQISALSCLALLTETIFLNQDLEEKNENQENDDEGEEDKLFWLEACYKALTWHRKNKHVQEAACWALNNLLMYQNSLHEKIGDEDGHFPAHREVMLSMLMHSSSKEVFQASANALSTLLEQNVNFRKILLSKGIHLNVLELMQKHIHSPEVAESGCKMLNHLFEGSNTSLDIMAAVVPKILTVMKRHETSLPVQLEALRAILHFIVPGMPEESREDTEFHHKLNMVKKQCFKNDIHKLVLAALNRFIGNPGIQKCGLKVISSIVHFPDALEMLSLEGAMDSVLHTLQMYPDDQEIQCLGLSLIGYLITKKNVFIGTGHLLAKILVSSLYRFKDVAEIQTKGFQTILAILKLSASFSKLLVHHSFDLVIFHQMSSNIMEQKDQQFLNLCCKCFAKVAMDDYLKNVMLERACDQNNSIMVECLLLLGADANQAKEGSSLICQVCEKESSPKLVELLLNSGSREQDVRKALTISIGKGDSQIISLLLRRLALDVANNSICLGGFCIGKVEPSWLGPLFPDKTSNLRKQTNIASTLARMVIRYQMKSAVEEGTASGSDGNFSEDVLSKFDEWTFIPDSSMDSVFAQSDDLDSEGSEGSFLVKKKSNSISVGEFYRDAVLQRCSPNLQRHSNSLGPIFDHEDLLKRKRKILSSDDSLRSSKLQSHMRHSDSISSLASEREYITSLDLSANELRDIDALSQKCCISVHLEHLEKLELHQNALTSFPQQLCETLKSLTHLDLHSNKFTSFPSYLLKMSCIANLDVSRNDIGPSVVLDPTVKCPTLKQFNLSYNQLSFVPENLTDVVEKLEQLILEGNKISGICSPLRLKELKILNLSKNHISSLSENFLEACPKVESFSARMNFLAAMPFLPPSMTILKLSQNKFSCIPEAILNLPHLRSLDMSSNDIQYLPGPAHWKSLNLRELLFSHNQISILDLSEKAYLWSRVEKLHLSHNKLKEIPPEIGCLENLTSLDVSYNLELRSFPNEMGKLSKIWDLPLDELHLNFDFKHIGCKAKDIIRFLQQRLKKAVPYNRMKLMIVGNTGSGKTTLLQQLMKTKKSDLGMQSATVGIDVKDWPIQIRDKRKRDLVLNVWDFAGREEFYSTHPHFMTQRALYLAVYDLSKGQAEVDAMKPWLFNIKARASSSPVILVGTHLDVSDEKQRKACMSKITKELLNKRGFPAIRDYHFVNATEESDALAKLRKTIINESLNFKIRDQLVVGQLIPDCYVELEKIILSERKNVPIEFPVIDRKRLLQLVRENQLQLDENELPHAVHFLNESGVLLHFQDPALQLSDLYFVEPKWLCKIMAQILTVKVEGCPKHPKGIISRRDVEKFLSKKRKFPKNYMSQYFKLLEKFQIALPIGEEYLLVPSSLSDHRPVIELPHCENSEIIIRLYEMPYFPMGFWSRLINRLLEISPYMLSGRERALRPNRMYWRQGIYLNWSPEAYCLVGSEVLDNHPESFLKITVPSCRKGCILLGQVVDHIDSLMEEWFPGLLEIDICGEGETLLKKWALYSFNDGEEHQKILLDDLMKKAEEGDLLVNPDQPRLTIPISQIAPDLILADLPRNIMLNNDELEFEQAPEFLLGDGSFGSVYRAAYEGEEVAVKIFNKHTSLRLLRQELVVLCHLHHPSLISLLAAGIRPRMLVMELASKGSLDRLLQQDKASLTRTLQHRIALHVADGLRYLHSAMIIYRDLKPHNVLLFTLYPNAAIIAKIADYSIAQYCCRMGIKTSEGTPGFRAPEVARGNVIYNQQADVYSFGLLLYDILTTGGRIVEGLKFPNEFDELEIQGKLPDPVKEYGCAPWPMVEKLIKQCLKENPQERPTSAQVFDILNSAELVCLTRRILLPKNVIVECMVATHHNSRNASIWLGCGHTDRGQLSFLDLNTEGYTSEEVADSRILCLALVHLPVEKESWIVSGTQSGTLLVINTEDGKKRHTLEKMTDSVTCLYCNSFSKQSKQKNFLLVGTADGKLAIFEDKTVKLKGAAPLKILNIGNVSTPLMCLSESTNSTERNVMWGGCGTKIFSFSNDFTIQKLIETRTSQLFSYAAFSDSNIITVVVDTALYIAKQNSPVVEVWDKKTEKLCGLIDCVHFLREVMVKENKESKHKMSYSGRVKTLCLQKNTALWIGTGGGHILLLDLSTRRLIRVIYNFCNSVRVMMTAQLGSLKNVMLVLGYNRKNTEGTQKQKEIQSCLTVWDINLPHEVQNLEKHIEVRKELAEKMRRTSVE

## CC1(Oc2ccc3[nH]nc(-c4cc(N5CCOCC5)ncn4)c3c2)CC1
[1]
  hepatocyte CLint at 1 µM: 8 µL/min/1e6 cells
MDR1 (human)
  Papp: 35 ×10⁻⁶ cm/s
[2]
  hepatocyte CLint at 1 µM: 18 µL/min/1e6 cells

## CC(C)Oc1ccc2[nH]nc(-c3ccnc(N4CCN(S(C)(=O)=O)CC4)c3)c2c1
[1]
  hepatocyte CLint at 1 µM: 7 µL/min/1e6 cells
MDR1 (human)
  Papp: 29 ×10⁻⁶ cm/s
[3]
  IC50: 83 nM
[4]
  Ratio: 0.6
[5]
  IC50: 14 nM
[6]
  Ratio: 0.4
[2]
  hepatocyte CLint at 1 µM: 32 µL/min/1e6 cells

## c1cc(-c2n[nH]c3ccc(C4CC4)cc23)cc(N2CCOCC2)n1
[1]
  hepatocyte CLint at 1 µM: 31 µL/min/1e6 cells
MDR1 (human)
  Papp: 25 ×10⁻⁶ cm/s
[4]
  Ratio: 0.1
[7]
  IC50: 13 nM
[6]
  Ratio: 0.2
[2]
  hepatocyte CLint at 1 µM: 52 µL/min/1e6 cells

## c1ccc2c(-c3cncc(N4CCOCC4)c3)n[nH]c2c1
MDR1 (human)
  Papp: 38 ×10⁻⁶ cm/s
[4]
  Ratio: 0.5
[7]
  IC50: 256 nM
[6]
  Ratio: 0.4

## CC(C)Oc1ccc2[nH]nc(-c3ccnc(N4CCN(C)C(=O)C4)c3)c2c1
[1]
  hepatocyte CLint at 1 µM: 16 µL/min/1e6 cells
MDR1 (human)
  Papp: 38 ×10⁻⁶ cm/s
[3]
  IC50: 59 nM
[4]
  Ratio: 15
[5]
  IC50: 91 nM
[6]
  Ratio: 3.2
[2]
  hepatocyte CLint at 1 µM: 38 µL/min/1e6 cells

## c1cc(-c2n[nH]c3ccc(OC4CC4)cc23)cc(N2CCOCC2)n1
[1]
  hepatocyte CLint at 1 µM: 37 µL/min/1e6 cells
MDR1 (human)
  Papp: 31 ×10⁻⁶ cm/s
[4]
  Ratio: 0.3
[7]
  IC50: 41 nM
[6]
  Ratio: 0.3
[2]
  hepatocyte CLint at 1 µM: 32 µL/min/1e6 cells

## N#Cc1ccc2[nH]nc(-c3ccnc(N4CCOCC4)c3)c2c1
MDR1 (human)
  Papp: 34 ×10⁻⁶ cm/s
[4]
  Ratio: 1.3
[7]
  IC50: 64 nM
[6]
  Ratio: 0.7

## C[C@H]1CN(c2cc(-c3n[nH]c4ccc(OC5(C)CC5)cc34)ncn2)CCO1
[1]
  hepatocyte CLint at 1 µM: 7 µL/min/1e6 cells
MDR1 (human)
  Papp: 27 ×10⁻⁶ cm/s
[3]
  IC50: 3.8 nM
[4]
  Ratio: 0.5
[5]
  IC50: 76 nM
[6]
  Ratio: 0.5
[2]
  hepatocyte CLint at 1 µM: 26 µL/min/1e6 cells

## c1ccc2c(-c3ccnc(N4CCOCC4)c3)n[nH]c2c1
MDR1 (human)
  Papp: 19 ×10⁻⁶ cm/s
[4]
  Ratio: 0.2
[7]
  IC50: 12 nM
[6]
  Ratio: 0.3

## CC(C)Oc1ccc2[nH]nc(-c3cc(N4CCOCC4)ncn3)c2c1
[1]
  hepatocyte CLint at 1 µM: 6 µL/min/1e6 cells
MDR1 (human)
  Papp: 38 ×10⁻⁶ cm/s
[3]
  IC50: 41 nM
[4]
  Ratio: 0.4
[6]
  Ratio: 0.6
[2]
  hepatocyte CLint at 1 µM: 13 µL/min/1e6 cells

## c1ccc2c(-c3ccncc3)n[nH]c2c1
[7]
  IC50: 904 nM

## CC(C)Oc1ccc2[nH]nc(-c3ccnc(N4CCN(C)CC4)c3)c2c1
[1]
  hepatocyte CLint at 1 µM: 7 µL/min/1e6 cells
MDR1 (human)
  Papp: 27 ×10⁻⁶ cm/s
[3]
  IC50: 52 nM
[4]
  Ratio: 1.7
[7]
  IC50: 0.8 nM
[6]
  Ratio: 0.6
[2]
  hepatocyte CLint at 1 µM: 36 µL/min/1e6 cells

## c1ccc(-c2n[nH]c3ccccc23)nc1
[7]
  IC50: 6190 nM

## Cn1cc(-c2ccc3[nH]nc(-c4ccnc(N5CCOCC5)c4)c3c2)cn1
[1]
  hepatocyte CLint at 1 µM: 7 µL/min/1e6 cells
MDR1 (human)
  Papp: 38 ×10⁻⁶ cm/s
[4]
  Ratio: 6.3
[6]
  Ratio: 1.5
[2]
  hepatocyte CLint at 1 µM: 31 µL/min/1e6 cells

## COc1ccc2[nH]nc(-c3ccnc(N4CCOCC4)c3)c2c1
[1]
  hepatocyte CLint at 1 µM: 23 µL/min/1e6 cells
MDR1 (human)
  Papp: 33 ×10⁻⁶ cm/s
[4]
  Ratio: 0.4
[7]
  IC50: 15 nM
[6]
  Ratio: 0.2
[2]
  hepatocyte CLint at 1 µM: 28 µL/min/1e6 cells

## c1cnnc(-c2ccc3[nH]nc(-c4ccnc(N5CCOCC5)c4)c3c2)c1
[1]
  hepatocyte CLint at 1 µM: 10 µL/min/1e6 cells
MDR1 (human)
  Papp: 32 ×10⁻⁶ cm/s
[4]
  Ratio: 38
[6]
  Ratio: 16
[2]
  hepatocyte CLint at 1 µM: 6 µL/min/1e6 cells

## COCCNc1cc(-c2n[nH]c3ccccc23)ccn1
[7]
  IC50: 98 nM

## c1cncc(-c2n[nH]c3ccccc23)c1
[7]
  IC50: 1230 nM

## O=S(=O)(c1ccc2[nH]nc(-c3ccnc(N4CCOCC4)c3)c2c1)C1CC1
[1]
  hepatocyte CLint at 1 µM: 7.3 µL/min/1e6 cells
MDR1 (human)
  Papp: 35 ×10⁻⁶ cm/s
[4]
  Ratio: 44
[6]
  Ratio: 20
[2]
  hepatocyte CLint at 1 µM: 15 µL/min/1e6 cells

## CC1(Oc2ccc3[nH]nc(-c4cc(N5CCN(S(C)(=O)=O)CC5)ncn4)c3c2)CC1
MDR1 (human)
  Papp: 30 ×10⁻⁶ cm/s
[3]
  IC50: 7.6 nM
[4]
  Ratio: 12
[7]
  IC50: 2.2 nM
[6]
  Ratio: 2.2
[2]
  hepatocyte CLint at 1 µM: 10 µL/min/1e6 cells

## c1ccc2c(-c3cc(N4CCOCC4)ncn3)n[nH]c2c1
[1]
  hepatocyte CLint at 1 µM: 9 µL/min/1e6 cells
[2]
  hepatocyte CLint at 1 µM: 30 µL/min/1e6 cells
